# In patent US20060223811A1, “Triglycerine depressant composition” (priority 2000, published 2006):
# Tested on: blood triglyceride levels
# Test: Assay of blood triglyceride levels in dogs after 11 days of oral capsule administration (GK-GPO-POD method)
# Conditions: serum, relative ratio against averaged pre-dosing level (100), oral capsule once daily, mean of 5 dogs
# [1] = Table 9, pravastatin 2 mg/kg, pantethine 300 mg/kg
# [2] = Table 11, pravastatin 2, riboflavin butyrate 6, d-α-tocopherol acetate 150, ascorbic acid 500 mg/kg
# [3] = Table 12, pravastatin 2, d-α-tocopherol acetate 10, ascorbic acid 50 mg/kg
# Description: Beagle dogs aged 5 months were purchased from Covance Research Products Inc. and used after 1 month of quarantine and acclimatisation breeding.
# (3) Preparation Forms for Administration, Methods of Preparing the Formulation, and Method of Stocking the Formulation
# The calculated amounts of pravastatin or each component of the compositions based on the body weight of each dog were weighed and filled in a gelatin capsule (½ ounce) purchased from TORPAC Inc. Capsules filled with pravastatin were stocked in a refrigerator and, those filled with combination drugs stocked at room temperature until use.
# The combination drugs were filled in identical gelatin capsules.
# (4) Route of Administration and Administration Period
# Pravastatin or combination drug capsules were forcibly orally administered to each of the test animals once daily between 9:00 and 12:30. Animals were fasted for 2 or 3 hr prior to administration of the capsules.
# The administration period was 11 successive days.
# (5) Preparation of Test Samples and Procedures
# Blood (10 mL) was collected from the superficial radial vein 14 and 7 days prior to capsule administration (2 and 1 weeks prior to administration) and 4, 8, and 12 days after administration of the capsule. Animals were fasted for approximately 18 hr prior to blood collection. Collected blood was placed in a test tube, left at room temperature for 0.5-1 hr, before being centrifuged (3,000 rpm for 10 min). The obtained serum was used for assays of blood triglyceride levels according to GK-GPO-POD methods.
# A full automatic analyzer (Monarch, Instrumentation Laboratory, Inc.) was used for assay of triglycerides.
# The averaged value in each group was obtained from 5 animals per group.
smiles,measurement,setting,value
"CC[C@H](C)C(=O)O[C@H]1C[C@H](O)C=C2C=C[C@H](C)[C@H](CC[C@@H](O)C[C@@H](O)CC(=O)O)[C@H]21 [Pravastatin alone, (+)−(3R, 5R)-3,5-dihydroxy-7-[(1S, 2S,6S,8S,8aR)-6-hydroxy-2-methyl-8-[(S)-2-methylbutyryloxy]-1,2,6,7,8,8a-hexahydro-1-naphthyl]heptanoic acid]","Blood Triglyceride Levels after administration, 4 days",[1],108.9
same,"Blood Triglyceride Levels after administration, 8 days",[1],104.0
same,"Blood Triglyceride Levels after administration, 12 days",[1],91.1
same,"Blood Triglyceride Levels after administration, 4 days",[2],108.9
same,"Blood Triglyceride Levels after administration, 8 days",[2],104.0
same,"Blood Triglyceride Levels after administration, 12 days",[2],91.1
same,"Blood Triglyceride Levels after administration, 4 days",[3],108.9
same,"Blood Triglyceride Levels after administration, 8 days",[3],104.0
same,"Blood Triglyceride Levels after administration, 12 days",[3],91.1
